According to PubChem BioAssay (NCI):
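Where inhibition never reached the appropriate level, the endpoint shown equals the highest concentration tested. Otherwise, values were interpolated linearly from a five-concentration, 48-hour dose response in 96-well plates. At the TGI there is no net growth.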

Key:
Assay in all cases: NCI tumour cell line growth inhibition, 48 h
SF-268 CNS = system: SF-268 CNS
A549 NSCLC = system: A549 NSCLC
COLO 205 colon = system: COLO 205 colon
TK-10 renal = system: TK-10 renal
OVCAR-5 ovarian = system: OVCAR-5 ovarian
SF-295 CNS = system: SF-295 CNS
A498 renal = system: A498 renal
KM12 colon = system: KM12 colon
786-0 renal = system: 786-0 renal
HS 578T breast = system: HS 578T breast
LOX IMVI melanoma = system: LOX IMVI melanoma
ACHN renal = system: ACHN renal
SK-MEL-5 melanoma = system: SK-MEL-5 melanoma
T-47D breast = system: T-47D breast
MALME-3M melanoma = system: MALME-3M melanoma
MDA-N = system: MDA-N
SF-539 CNS = system: SF-539 CNS
HT29 colon = system: HT29 colon
CAKI-1 renal = system: CAKI-1 renal

Compound	TGI (SF-268 CNS) [µM]	TGI (A549 NSCLC) [µM]	TGI (COLO 205 colon) [µM]	TGI (TK-10 renal) [µM]	TGI (OVCAR-5 ovarian) [µM]	TGI (SF-295 CNS) [µM]	TGI (A498 renal) [µM]	TGI (KM12 colon) [µM]	TGI (786-0 renal) [µM]	TGI (HS 578T breast) [µM]	TGI (LOX IMVI melanoma) [µM]	TGI (ACHN renal) [µM]	TGI (SK-MEL-5 melanoma) [µM]	TGI (T-47D breast) [µM]	TGI (MALME-3M melanoma) [µM]	TGI (MDA-N) [µM]	TGI (SF-539 CNS) [µM]	TGI (HT29 colon) [µM]	TGI (CAKI-1 renal) [µM]
C[C@]12CC[C@H]3[C@@H](CCC4=CC(=O)CC[C@@H]43)[C@@H]1CC[C@]2(O)C(N)=O	> 100	> 100	> 100	> 100	> 100	> 100	> 100	> 100	> 100	> 100	> 100	> 100	> 100	> 100	> 100	> 100	> 100	> 100	
OC1=C2c3ccccc3NC2Oc2cc(F)ccc21 (stereo not given)	40.3	52.7	27.6	47.1	38.2	29.5	32.4	31.2	29.9	> 100	39.3	46.7	28.2	68.1	48.5	31.4		38	48.4
[O-][n+]1nc(N2CCOCC2)nc2ccccc21	> 100	> 100	> 100	> 100	> 100	> 100	> 100	> 100	> 100	> 100	> 100	> 100		> 100	> 100	> 100	> 100	> 100	> 100
CC1=CC[C@H](C[C@H](C#CCCCC2OCCO2)O[Si](C(C)C)(C(C)C)C(C)C)C(=O)CC1	> 100	> 100	> 100	> 100	> 100	> 100	> 100	> 100	> 100	> 100	> 100	> 100	> 100	> 100	> 100	> 100		> 100	> 100
COc1ccc(CC2Cc3ccccc3CCN2)cc1OC (stereo not given)	> 50	> 50	21.4		> 50	> 50	> 50	> 50	> 50	> 50	> 50			> 50	> 50	> 50	> 50	> 50	> 50
CC1=NN(c2cccc(S(=O)(=O)O)c2)C2(C1)C(Cl)C(=O)N2c1nc2ccccc2s1 (stereo not given)	22.9	26.4	24.8	27.3	28.1	28	34	27.4	11.7	> 80.7	3.77	18.4	18.8	40.4	17.3	27.7		22.2	8.48
Cc1c(N=Nc2ccccc2)c(-c2ccccc2)n(C2OC(CO)C(O)C(O)C2O)c(=S)c1C#N (stereo not given)	37	21.5	31.3	26.9	28.9	55.8	32.5	11.6	18.8	> 100	12.4	18.8		4.74	30.6	20.1	20.6	29.7	
CC1=NN(c2ccccc2)C2(C1)C(Cl)C(=O)N2c1nc2ccccc2s1 (stereo not given)	> 100	> 100	80.6	> 100	> 100	> 100	> 100	> 100	> 100	> 100	26.3	> 100	73.3	> 100	> 100	> 100		> 100	> 100
Cc1cccc(N/C(=C(/C(Cl)=C(Cl)Cl)[N+](=O)[O-])n2nnc3ccccc32)c1	31.1	36	32.8		38	32	25	29.3	35.7	21.8		63.1		56	28.1	64.9	32	33.3	31.4
COc1cccc(Nc2nc(C)c([N+](=O)[O-])c(Nc3cccc(OC)c3)n2)c1	> 100	> 100	44.9	95.7	> 100	47.9	50.4		> 100	> 100	> 100	> 100	77.2	6.9	> 100	> 100	> 100	> 100	
CN1CCC23c4c5ccc(Oc6nnnn6-c6ccccc6)c4OC2c2[nH]c4ccccc4c2CC3(O)C1C5 (stereo not given)	21.2	13.1		3.35	32.6	15.3	6.3	7.68	3.33	33.9	3.75	3.52		23.1	3.11	3.26		5.3	4.77
